Results: patent US11103518B2, “Prostate cancer treatment via synergistic inhibition of aryl hydrocarbon receptor (AhR) and SRC” (Clark Atlanta University, Inc., priority 2016, dated 2021)

Assays:
[1] = biological target: T1, estrogen receptor (Homo sapiens, UniProt P03372); settings: cited from earlier work
T1 sequence (P03372 1-595): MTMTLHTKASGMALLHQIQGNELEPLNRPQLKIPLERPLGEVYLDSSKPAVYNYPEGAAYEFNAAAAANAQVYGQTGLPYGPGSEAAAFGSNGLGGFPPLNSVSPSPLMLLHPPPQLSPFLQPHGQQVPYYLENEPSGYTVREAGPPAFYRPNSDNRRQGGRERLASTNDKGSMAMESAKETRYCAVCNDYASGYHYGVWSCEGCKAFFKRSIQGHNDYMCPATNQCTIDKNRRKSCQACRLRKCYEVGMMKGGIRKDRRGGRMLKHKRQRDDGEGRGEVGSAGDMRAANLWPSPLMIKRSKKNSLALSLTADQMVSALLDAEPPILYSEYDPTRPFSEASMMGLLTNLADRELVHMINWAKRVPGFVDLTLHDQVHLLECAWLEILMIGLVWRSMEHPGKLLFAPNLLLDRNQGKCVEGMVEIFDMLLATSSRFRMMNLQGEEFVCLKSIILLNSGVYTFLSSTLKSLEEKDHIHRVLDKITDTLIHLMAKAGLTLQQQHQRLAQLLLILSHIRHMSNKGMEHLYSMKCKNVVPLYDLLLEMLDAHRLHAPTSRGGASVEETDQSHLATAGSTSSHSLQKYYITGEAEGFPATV

[2] = biological target: T2, AhR (Homo sapiens, UniProt P35869); settings: even at 100 micromolar; cited from earlier work
T2 sequence (P35869 11-848): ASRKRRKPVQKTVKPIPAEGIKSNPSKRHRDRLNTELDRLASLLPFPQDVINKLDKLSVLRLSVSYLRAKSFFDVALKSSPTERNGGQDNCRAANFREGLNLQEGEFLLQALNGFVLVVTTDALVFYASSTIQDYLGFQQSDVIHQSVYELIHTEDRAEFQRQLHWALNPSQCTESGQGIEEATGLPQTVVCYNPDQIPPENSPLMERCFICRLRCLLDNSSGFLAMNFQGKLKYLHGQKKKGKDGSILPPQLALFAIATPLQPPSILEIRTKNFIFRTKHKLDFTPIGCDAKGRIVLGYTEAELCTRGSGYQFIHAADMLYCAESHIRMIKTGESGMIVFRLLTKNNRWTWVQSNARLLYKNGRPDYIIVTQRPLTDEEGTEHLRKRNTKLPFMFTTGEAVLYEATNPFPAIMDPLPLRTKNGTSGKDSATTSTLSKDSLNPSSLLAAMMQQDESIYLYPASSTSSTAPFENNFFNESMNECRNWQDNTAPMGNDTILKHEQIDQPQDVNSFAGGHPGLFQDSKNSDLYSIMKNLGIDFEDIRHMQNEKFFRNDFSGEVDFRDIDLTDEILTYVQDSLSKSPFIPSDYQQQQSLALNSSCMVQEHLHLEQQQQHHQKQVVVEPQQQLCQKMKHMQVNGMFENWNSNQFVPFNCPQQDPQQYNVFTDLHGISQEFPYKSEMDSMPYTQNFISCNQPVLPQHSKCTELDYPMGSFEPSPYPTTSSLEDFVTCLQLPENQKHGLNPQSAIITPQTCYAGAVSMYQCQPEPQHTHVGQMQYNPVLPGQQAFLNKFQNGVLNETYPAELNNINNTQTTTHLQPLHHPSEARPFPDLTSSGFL

[3] = tested on: C4-2 prostate cancer cells; test: Cell cycle analysis; assay type: cell-based, human; settings: C4-2 cells, 72 hrs; 50 μM CH223191, 30 μM PP2 alone or in combination, FIG. 4B
[4] = tested on: AhR; test: Cignal XRE luciferase reporter assay in C4-2 cells; assay type: cell-based, human; settings: C4-2 cells transfected with XRE reporter, FIG. 2A
Protocol: XRE and ARE Binding: 4×10^4 Cells were plated in a 96 well plate. C4-2 cells were transfected with XRE and ARE reporter, as well as with positive and negative control reporter plasmids using attractene. After 16 hours of transfection, media was changed to standard assay media (DMEM+0.5% FBS+0.1 mM NEAA). Cells were grown for an additional 8 hours under normal cell conditions. After 24 hours of transfection, treat the cells and harvested cells 18 hours after treatment. A dual luciferase assay was performed after 42 hours of transfection, and promoter activity values are expressed as arbitrary florescence units (AFU). Experiments were performed in triplicate and the standard error is indicated.
The Cignal XRE and ARE luciferase reporter assays were utilized to determine the activity of AhR and AR signaling pathways in androgen independent (C4-2) prostate cancer cells in the presence and absence of inhibitors. C4-2 cells were transfected with an XRE reporter plasmid & ARE reporter plasmid, as well as with positive and negative control reporter plasmids using attractene. Following transfection, treatments were added to each appropriate plate. A dual luciferase assay was performed and promoter activity values are expressed as arbitrary florescence units (AFU).

[5] = tested on: AR; test: Nuclear and cytoplasmic fractionation with western blot, AR nuclear localization in C4-2 cells; assay type: cell-based, human; settings: nuclear fraction normalized with topoisomerase, FIG. 1B
Protocol: In order to address the role of AhR and SRC in this process, a sub-cellular localization was confirmed by immunoblotting following cellular fractionation. […] Cells were washed with cold PBS and cellular fractions were isolated per manufactures instructions using a NE-PER Extraction kit. The nuclear and cytoplasmic fractions were analyzed by western blotting for AhR and AR protein expression. The relative level of cytoplasmic AhR & AR were normalized with β-tubulin expression and the relative level of nuclear AhR & AR were normalized with topoisomerase expression. Blots are representative of three independent experiments.

[6] = tested on: CYP1B1; test: qRT-PCR of CYP1B1 mRNA expression in C4-2 cells; settings: 50 μM CH223191 or 30 μM PP2 alone or in combination, 72 h, normalized to L-19
Protocol: (§1) RNA Extraction and Quantitative qRT-PCR Analysis: Total RNA was isolated from cell monolayers grown in 100 mm tissue culture dishes using RNeasy Mini Kit (Qiagen). 2 μg of the total RNA was reverse-transcribed using the Superscript II kit (Invitrogen), according to the manufacturer's recommendations. The cDNA served as a template in a 25 μl reaction mixture and was processed using the following protocol: an initial denaturation at 95° C. for 3 min, followed by 39 amplification cycles (95° C. for 10 s and 55-65° C. for 30 s), 95° C. for 10 s, 65° C. for 5 s and 95° C. for 50 s. The 25 μl qPCR reaction mixture was mixed with GoTaq qPCR Master Mix (Promega). Melt curve analyses were performed after each run to ensure a single product. Relative gene expression was determined using the ΔΔCq calculation method.
(§2) Primers to amplify the 470-bp cDNA fragment encoding L19 were used as an internal control. L-19: Forward (5′-3′) [sequence] & Reverse (5′-3′) [sequence].
(§3) Each bar represents mean±SEM (n=3) and were analyzed by student t-test. (*) denotes statistically significant differences (*P<0.05) compared to control.

[7] = tested on: C4-2 prostate cancer cells; test: Promega CellTiter 96 Cell Proliferation Assay; assay type: cell-based, human; settings: 50 μM CH223191, 30 μM PP2 alone or in combination
[8] = biological target: T2, AhR; settings: cited from earlier work
[9] = tested on: KLK3; settings: C4-2 cells, 50 μM CH223191 or 30 μM PP2 alone or in combination, 72 h, normalized to L-19
Protocol: as §1, §2, §3

[10] = tested on: AhR; test: qRT-PCR of AhR mRNA expression in C4-2 cells; settings: 50 μM CH223191 or 30 μM PP2 alone or in combination, 72 h, normalized to L-19
Protocol: as §1, §2, §3

[11] = tested on: AR; test: Cignal ARE luciferase reporter assay in C4-2 cells; assay type: cell-based, human; settings: C4-2 cells transfected with ARE reporter, FIG. 2B
Protocol: The Cignal XRE and ARE luciferase reporter assays were utilized to determine the activity of AhR and AR signaling pathways in androgen independent (C4-2) prostate cancer cells in the presence and absence of inhibitors. C4-2 cells were transfected with an XRE reporter plasmid & ARE reporter plasmid, as well as with positive and negative control reporter plasmids using attractene. Following transfection, treatments were added to each appropriate plate. A dual luciferase assay was performed and promoter activity values are expressed as arbitrary florescence units (AFU). Each bar represents mean±SEM (n=3) and were analyzed by student t-test. (*) denotes statistically significant differences (*P<0.0001).

[12] = tested on: AR; test: qRT-PCR of AR mRNA expression in C4-2 cells; settings: 50 μM CH223191 or 30 μM PP2 alone or in combination, 72 h, normalized to L-19
Protocol: as §1, §2, §3

Compound: Cc1ccccc1/N=N/c1ccc(NC(=O)c2ccnn2C)c(C)c1 [CH223191, 2-Methyl-2H-pyrazole-3-carboxylic acid (2-methyl-4-o-tolylazo-phenyl)-amide]
- affinity for the estrogen receptor [1]: no affinity
- stimulation of AhR-dependent transcription (agonist activity) [2]: did not stimulate
- percent of cells in the G0/G1 phase of the cell cycle [3]: increase
- decrease in AhR promoter activity (XRE binding) compared to DMSO [4]: 30%
- presence of AR in the nucleus (AR nuclear localization) [5]: reduced
- reduction of CYP1B1 gene expression compared to control [6]: more than twofold
- growth of C4-2 cells ([7]; 48 and 72 hours): significantly inhibited
- decrease in overall growth rate compared to DMSO ([7]; after 72 hours of exposure): 25%
- TCDD-mediated nuclear translocation and DNA binding of AhR [8]: inhibited
- decrease in KLK3 mRNA expression [9]: 65%
- reduction of AhR gene expression compared to control [10]: more than twofold
- reduction of AR promoter activity compared to DMSO in ARE binding assay [11]: 70%
- reduction of AR gene expression [12]: 60%
